Earlier results, collected in US7432093B2, “Soluble, functional apoptotic protease-activating factor 1 fragments” (The Trustees of Princeton University, priority 2004, dated 2008).

Molecular target: T1, Apaf-1 (Homo sapiens, UniProt O14727)
T1 sequence (O14727 1-1248): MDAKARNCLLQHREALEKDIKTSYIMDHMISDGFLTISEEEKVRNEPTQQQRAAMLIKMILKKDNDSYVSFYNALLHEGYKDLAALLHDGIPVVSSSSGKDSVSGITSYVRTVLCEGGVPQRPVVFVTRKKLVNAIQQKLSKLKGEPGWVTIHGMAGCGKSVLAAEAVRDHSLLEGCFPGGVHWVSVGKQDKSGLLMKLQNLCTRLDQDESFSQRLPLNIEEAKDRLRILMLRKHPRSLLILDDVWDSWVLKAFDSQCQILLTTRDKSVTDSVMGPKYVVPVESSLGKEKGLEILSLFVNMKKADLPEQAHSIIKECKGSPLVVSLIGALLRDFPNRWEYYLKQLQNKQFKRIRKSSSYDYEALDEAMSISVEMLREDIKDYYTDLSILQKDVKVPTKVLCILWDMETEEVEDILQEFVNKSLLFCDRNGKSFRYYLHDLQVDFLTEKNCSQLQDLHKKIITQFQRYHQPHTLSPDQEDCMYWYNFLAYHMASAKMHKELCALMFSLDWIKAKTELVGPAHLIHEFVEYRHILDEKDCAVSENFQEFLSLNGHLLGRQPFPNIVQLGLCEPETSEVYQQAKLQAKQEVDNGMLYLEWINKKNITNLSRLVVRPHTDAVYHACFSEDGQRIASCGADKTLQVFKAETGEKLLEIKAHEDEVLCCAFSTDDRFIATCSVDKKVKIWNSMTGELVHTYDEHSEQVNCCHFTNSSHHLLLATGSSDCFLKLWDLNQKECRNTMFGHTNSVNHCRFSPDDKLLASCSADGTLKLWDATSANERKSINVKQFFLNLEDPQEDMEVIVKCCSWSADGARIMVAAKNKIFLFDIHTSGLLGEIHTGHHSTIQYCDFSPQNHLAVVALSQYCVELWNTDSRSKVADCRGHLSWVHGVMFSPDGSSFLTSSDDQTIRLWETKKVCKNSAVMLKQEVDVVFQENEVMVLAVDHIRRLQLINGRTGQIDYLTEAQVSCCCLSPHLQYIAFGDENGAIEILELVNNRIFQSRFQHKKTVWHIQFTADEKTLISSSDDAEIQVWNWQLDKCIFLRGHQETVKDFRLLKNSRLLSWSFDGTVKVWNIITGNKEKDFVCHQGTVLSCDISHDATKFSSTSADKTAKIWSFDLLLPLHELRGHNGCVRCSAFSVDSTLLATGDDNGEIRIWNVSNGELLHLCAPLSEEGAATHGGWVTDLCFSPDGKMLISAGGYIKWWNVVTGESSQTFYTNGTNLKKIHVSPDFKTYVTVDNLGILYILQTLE
Details: observed by others, explained by the structure; cited from earlier work

Nc1nc2c(ncn2[C@@H]2O[C@H](COP(=O)(O)OP(=O)(O)OP(=O)(O)O)[C@@H](O)[C@H]2O)c(=O)[nH]1 [GTP]
activation of Apaf-1: does not activate Apaf-1
